Source: US20220280543A1, “DDX17 AND NLRC4 TARGETING FOR INFLAMMATORY DISEASES” (University of Virginia Patent Foundation, priority 2019, published 2022)
Entries after “also recorded” stand apart in the source; their conditions may differ. Blank lines part the entries; values can stand above or below the molecule they belong to.

Legend:
[1] = test system: caspase-1; assay: Alu RNA induced caspase-1 activation (p20 in supernatant) in BMDM pre-treated with kinase inhibitors; type: cell-based, mouse; details: BMDM pre-treated 1 hour with inhibitor at 2 μM or 5 μM, then Alu RNA transfection (100 pmol)
Procedure: (§1) FIG. 2. SINE RNA induced NLRC4 phosphorylation (site S533) through protein Kinase C Delta. BMDM cell pre-treated with the LRRK2 Kinase inhibitor gsk2578215a (GSK; 5-(2-Fluoro-4-pyridinyl)-2-(phenylmethoxy)-N-3-pyridinyl-benzamide; CAS Number 1285515-21-0; Sigma-Aldrich, St. Louis, Mo., United States of America) or the PKC delta inhibitor Rottlerin (CAS Number 82-08-6; Sigma-Aldrich) at 2 μM or 5 μM, and treated with Alu RNA (SEQ ID NO: 86) transfection or transfection reagent alone (Mock). NLRC4 phosphorylation (P-NLRC4) and supernatant caspase-1 activation were detected by SDS-PAGE. […] PKC delta inhibitor, Rottlerin blocked Alu RNA-induced NLRC4 phosphorylation and caspase-1 activation. The p-NLRC4 and caspase-1 (p20) bands were indicated with black arrows.
(§2) Previous studies have shown that NLRC4 inflammasome activation in response to Salmonella exposure requires two steps for its activation, phosphorylation on Ser533 residue of NLRC4 and NAIP mediated oligomerization of NLRC4. […] Moreover, treatment with SINE RNAs induced caspase-1 p20 cleavage, indicative of inflammasome activation (FIG. 2). For the subsequent experiments in this study, we used Alu RNA (SEQ ID NO: 86) as the stimulus to activate the NLRC4 inflammasome. To date, two kinases are reported to phosphorylate NLRC4 at S533: protein kinase C delta (PKCδ) and leucine rich repeat-containing kinase-2 (LRRK2). […]

[2] = test system: NLRC4 phosphorylation (site S533); assay: Alu RNA induced NLRC4 phosphorylation (S533) in BMDM pre-treated with kinase inhibitors, immunoblot; type: cell-based, mouse; details: BMDM pre-treated 1 hour with inhibitor at 2 μM or 5 μM, then Alu RNA transfection (100 pmol)
Procedure: as §1, §2

[3] = molecular target: the molecule itself; assay: homo-oligomerization, Tris-glycine native PAGE, Alu RNA-transfected human RPE cells
Source text: FIGS. 24A and 24B. Alu RNA (SEQ ID NO: 86) induced NLRC4 activation in human RPE cells. To test whether Alu RNA (SEQ ID NO: 86) induces NLRC4 activation in human RPE, we transfected human RPE with Alu RNA (SEQ ID NO: 86 at 100 pmol). FIG. 24A. Immunofluorescence staining on NLRC4 show Alu RNA (SEQ ID NO: 86) induced cytosolic NLRC4 punctate in hRPE cells. The NLRC4 aggregates induced by Alu RNA (SEQ ID NO: 86) are indicated by white arrows. FIG. 24B. Alu RNA (SEQ ID NO: 86) induced NLRC4 (p-NLRC4) phosphorylation and oligomerization. Loading control show by Actin. NLRC4 oligomers were detected by Tris-glycine native PAGE. […] The band of NLRC4 oligomers is indicated by black arrow.

[4] = molecular target: T1, human NLR family pyrin domain containing 3 (NLRP3) (human, UniProt Q96P20 1-1036); assay: proximity ligation assay (PLA) in human RPE cells transfected with biotinylated Alu RNA
T1 construct: Endogenous protein of human RPE cells
Procedure: FIG. 37. Alu RNA (SEQ ID NO: 86) induces the assembly of NLRC4 and NLRP3 complex. Human RPE cells were transfected with biotinylated Alu RNA (SEQ ID NO: 86 at 100 pmol) by LIPOFECTAMINE™ 3000 brand transfection reagent (Lipo; ThermoFisher Scientific). The assembly of NLRC4 and NLRP3 complex was evaluated by Proximity Ligation Assay (PLA). […] The signal of NLRC4-NLRP3 complexes is indicated by the white arrow.
Human RPE cells were treated with biotinylated Alu RNA (SEQ ID NO: 86 at 100 pmol). The assembly of NLRC4 and NLRP3 complex was evaluated by Proximity Ligation Assay (PLA).

T1 sequence (Q96P20 whole entry, the tested form may be a part): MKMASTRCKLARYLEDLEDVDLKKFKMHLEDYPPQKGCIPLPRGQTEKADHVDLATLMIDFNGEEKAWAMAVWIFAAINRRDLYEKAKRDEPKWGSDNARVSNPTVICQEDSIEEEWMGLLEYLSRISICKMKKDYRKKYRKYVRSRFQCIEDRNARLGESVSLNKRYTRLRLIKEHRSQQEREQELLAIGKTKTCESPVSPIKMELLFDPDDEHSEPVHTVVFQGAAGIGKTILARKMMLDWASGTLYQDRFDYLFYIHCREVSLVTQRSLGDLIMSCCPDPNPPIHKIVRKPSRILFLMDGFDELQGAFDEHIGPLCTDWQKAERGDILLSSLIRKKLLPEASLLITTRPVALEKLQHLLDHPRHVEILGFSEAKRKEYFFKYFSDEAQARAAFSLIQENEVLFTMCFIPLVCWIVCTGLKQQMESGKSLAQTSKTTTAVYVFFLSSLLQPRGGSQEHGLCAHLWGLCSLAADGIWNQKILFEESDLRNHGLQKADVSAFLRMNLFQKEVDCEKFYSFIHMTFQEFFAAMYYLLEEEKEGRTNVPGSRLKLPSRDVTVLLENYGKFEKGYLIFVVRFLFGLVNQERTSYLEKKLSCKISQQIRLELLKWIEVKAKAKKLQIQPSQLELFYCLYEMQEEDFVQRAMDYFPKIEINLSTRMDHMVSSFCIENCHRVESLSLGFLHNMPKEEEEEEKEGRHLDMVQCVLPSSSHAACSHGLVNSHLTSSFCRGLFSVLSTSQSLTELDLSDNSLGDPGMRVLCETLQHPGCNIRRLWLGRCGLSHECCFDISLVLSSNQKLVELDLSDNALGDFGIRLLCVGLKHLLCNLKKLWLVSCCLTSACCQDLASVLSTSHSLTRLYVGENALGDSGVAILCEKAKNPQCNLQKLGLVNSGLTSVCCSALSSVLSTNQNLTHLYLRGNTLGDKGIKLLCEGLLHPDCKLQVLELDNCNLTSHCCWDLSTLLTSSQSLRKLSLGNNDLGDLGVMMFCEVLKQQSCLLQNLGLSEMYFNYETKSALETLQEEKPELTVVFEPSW

Molecule: CC(=O)c1c(O)c(C)c(O)c(Cc2c(O)c3c(c(C(=O)/C=C/c4ccccc4)c2O)OC(C)(C)C=C3)c1O [Rottlerin]
Alu RNA induced caspase-1 activation [1]: blocked; also recorded: inhibited
Alu RNA induced phosphorylation of NLRC4 [2]: blocked; also recorded: inhibited

binding result [4]: binds
B1: human NLR family CARD domain containing 4 (NLRC4) (receptor)
chain: MNFIKDNSRALIQRMGMTVIKQITDDLFVWNVLNREEVNIICCEKVEQDAARGIIHMILKKGSESCNLFLKSLKEWNYPLFQDLNGQSLFHQTSEGDLDDLAQDLKDLYHTPSFLNFYPLGEDIDIIFNLKSTFTEPVLWRKDQHHHRVEQLTLNGLLQALQSPCIIEGESGKGKSTLLQRIAMLWGSGKCKALTKFKFVFFLRLSRAQGGLFETLCDQLLDIPGTIRKQTFMAMLLKLRQRVLFLLDGYNEFKPQNCPEIEALIKENHRFKNMVIVTTTTECLRHIRQFGALTAEVGDMTEDSAQALIREVLIKELAEGLLLQIQKSRCLRNLMKTPLFVVITCAIQMGESEFHSHTQTTLFHTFYDLLIQKNKHKHKGVAASDFIRSLDHCGDLALEGVFSHKFDFELQDVSSVNEDVLLTTGLLCKYTAQRFKPKYKFFHKSFQEYTAGRRLSSLLTSHEPEEVTKGNGYLQKMVSISDITSTYSSLLRYTCGSSVEATRAVMKHLAAVYQHGCLLGLSIAKRPLWRQESLQSVKNTTEQEILKAININSFVECGIHLYQESTSKSALSQEFEAFFQGKSLYINSGNIPDYLFDFFEHLPNCASALDFIKLDFYGGAMASWEKAAEDTGGIHMEEAPETYIPSRAVSLFFNWKQEFRTLEVTLRDFSKLNKQDIRYLGKIFSSATSLRLQIKRCAGVAGSLSLVLSTCKNIYSLMVEASPLTIEDERHITSVTNLKTLSIHDLQNQRLPGGLTDSLGNLKNLTKLIMDNIKMNEEDAIKLAEGLKNLKKMCLFHLTHLSDIGEGMDYIVKSLSSEPCDLEEIQLVSCCLSANAVKILAQNLHNLVKLSILDLSENYLEKDGNEALHELIDRMNVLEQLTALMLPWGCDVQGSLSSLLKHLEEVPQLVKLGLKNWRLTDTEIRILGAFFGKNPLKNFQQLNLAGNRVSSDGWLAFMGVFENLKQLVFFDFSTKEFLPDPALVRKLSQVLSKLTFLQEARLVGWQFDDDDLSVITGAFKLVTA
notes: Endogenous protein of human RPE cells and of human donor eyes
binding result [3]: binds
